From article PMC9698358, “The Discovery of Novel Ferulic Acid Derivatives Incorporating Substituted Isopropanolamine Moieties as Potential Tobacco Mosaic Virus Helicase Inhibitors” (International Journal of Molecular Sciences, 2022) come the findings set out here.

Experiment [1] concerns the target T1, TMV helicase (Tobacco mosaic virus, UniProt Q9IBK4).
T1 construct: helicase domain of the 126/183 kDa replicase
Put plainly: ATPase activity, malachite green phosphate release. In kind it is biochemical.

In experiment [2] the target is T1, TMV helicase. Put plainly: microscale thermophoresis. In kind it is binding. (In general: Microscale thermophoresis detects binding through changes in fluorescence in a small temperature gradient.)

T1 sequence (Q9IBK4 entry or part of it): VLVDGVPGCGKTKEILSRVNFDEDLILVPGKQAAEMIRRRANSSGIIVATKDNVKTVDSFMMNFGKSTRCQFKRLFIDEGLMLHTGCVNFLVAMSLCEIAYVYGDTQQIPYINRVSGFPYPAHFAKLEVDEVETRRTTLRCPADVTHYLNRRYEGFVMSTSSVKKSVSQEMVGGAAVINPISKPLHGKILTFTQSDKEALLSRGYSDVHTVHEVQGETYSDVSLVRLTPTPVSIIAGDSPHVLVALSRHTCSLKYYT

On to `COC(=O)/C=C/c1ccc(OCC(O)CN2CCN(Cc3ccccc3C)CC2)c(OC)c1` (stereo not shown) [A31], for which the inhibition (commonly the drop in the measured response relative to a control, in per cent) at 200 µM against TMV helicase [1] stood at 47%. The Kd – broadly, the equilibrium constant for the complex coming apart – on TMV helicase [2] is 13.5 µM. Take `COc1cc(/C=C/C(=O)O)ccc1O` [FA, 3-methoxy-4-hydroxycinnamic acid]: on TMV helicase [1], the inhibition at 200 µM came out at 26.4%. `COC(=O)/C=C/c1ccc(OC[C@H](O)CN2CCOCC2)c(OC)c1` [R-A19]: 200 µM produced 50.6% inhibition against TMV helicase [1]. Besides, at TMV helicase [2], the Kd was determined as 5.4 µM. For the compound `COC(=O)/C=C/c1ccc(OC[C@@H](O)CN2CCOCC2)c(OC)c1` [S-A19], on TMV helicase [1], the inhibition at 200 µM amounted to 44.5%. For the same compound, at TMV helicase [2], the Kd turned out to be 22.8 µM.
